Results published in PMC9848351, “Discovery of new pyridine-quinoline hybrids as competitive and non-competitive PIM-1 kinase inhibitors with apoptosis induction and caspase 3/7 activation capabilities” (Journal of Enzyme Inhibition and Medicinal Chemistry, 2023).

Tests used:
PIM-2 kinase = PIM-2 kinase (Homo sapiens, UniProt Q9P1W9); assay: PIM-2 kinase inhibitory activity (Promega kinase assay kit)
Description: PIM-1 and PIM-2 kinase inhibitory activity
PIM-1 and PIM-2 kinase utilizing PIM-1 and PIM-2 Kinase Assay Kit – Promega Corporation catalog #V4032, following the manufacturer’s instructions 26

[1] = tested on: prostate cancer cell line (PC-3); assay: MTT anticancer activity, PC-3; assay type: cell-based, human; details: Homo sapiens, 72 h, PC-3, 72 h, mean ± SEM
Description: (§1) Anticancer effect of the above-mentioned compounds was evaluated using four human cancer cell lines. Colon cancer cells (Caco-2), myeloid leukaemia cell line (NFS-60), liver cancer cell line (HepG-2) and prostate cancer cell line (PC-3) using MTT method was used for assaying cell viability[26] (Supplementary Page S55).
(§2) All final compounds were evaluated against four human cancer cell lines namely; liver cancer (HepG2) (ATCC® HB-8065™), colon cancer (Caco-2) (ATCC® HTB-37™), leukaemia cancer (NFS-60) (ATCC® CRL-1838™), and prostate cancer (PC-3) (ATCC® CRL-1435™) using doxorubicin (Dox) as the reference drug being widely used in tumour management utilising microculture MTT assay, declared by Mosmann[26] (Table 1 in Supplementary Material, Figures 5–8). […]
(§3) MTT method was used for assaying cell viability 25. Twenty microliters of 5 mg/ml MTT (Sigma, USA) was added to each well and the plate was incubated at 37 °C for 3 h. Then MTT solution was removed, 100 µl DMSO was used and the absorbance of each well was measured with a microplate reader ( BMG LabTech, Germany) at 570 nm. The effective concentration (IC 50) and safe dose (EC100) values of the tested compounds that cause 50% and 100% cell viability were estimated by the Graphpad Instat software.
(§4) Determination of the anticancer activity
(§5) Anticancer effect of the above-mentioned compounds was evaluated using four human cancer cell lines. Colon cancer cells (Caco-2) were maintained in DMEM (Lonza, USA) containing 10% FBS while myeloid leukemia cell line (NFS-60), liver cancer cell line (HepG-2) and prostate cancer cell line (PC-3) were cultured in RPMI-1640 (Lonza, USA) supplemented with 10% FBS. All cancer cells (5x10^3 cells/well) were seeded in sterile 96-well plates. After 24h, serial concentrations of the tested compounds and Dox were incubated with four cancer cell lines for 72 h at 37 °C in 5% CO2 incubator. MTT method was done as described above. The Graphpad Instat software was used for calculating the half maximal inhibitory concentration (IC50) values. Furthermore, phase contrast inverted microscope with a digital camera (Olympus, Japan) was used for investigating […]
(§6) safest anticancer compounds. […]

[2] = tested on: liver cancer cell line (HepG-2); assay: MTT anticancer activity, HepG-2; assay type: cell-based, human; details: Homo sapiens, HepG2; HepG-2, 72 h, MTT; mean ± SEM
Description: as §1, §2, §3, §4, §5, §6

[3] = tested on: myeloid leukaemia cell line (NFS-60); assay: MTT anticancer activity, NFS-60; assay type: cell-based; details: NFS-60, 72 h, MTT; mean ± SEM
Description: as §1, §2, §3, §4, §5, §6

[4] = tested on: Colon cancer cells (Caco-2); assay: MTT anticancer activity, Caco-2; assay type: cell-based, human; details: for IC50: Homo sapiens, Caco-2, 72 h, MTT, mean ± SEM; for Caco-2 SI: selectivity index, Wi-38 versus Caco-2
Description: as §1
All final compounds were evaluated against four human cancer cell lines namely; liver cancer (HepG2) (ATCC® HB-8065™), colon cancer (Caco-2) (ATCC® HTB-37™), leukaemia cancer (NFS-60) (ATCC® CRL-1838™), and prostate cancer (PC-3) (ATCC® CRL-1435™) using doxorubicin (Dox) as the reference drug being widely used in tumour management utilising microculture MTT assay, declared by Mosmann[26] (Table 1 in Supplementary Material, Figures 5–8).
(§7) Cytotoxicity of the tested compounds was evaluated using normal human lung fibroblast Wi-38 cell line compared to currently used anticancer drug (doxorubicin).
as §3, with “Firstly, Wi-38 cell line was subcultured in DMEM medium-contained 10% fetal bovine serum (FBS), then, seeded as 5x10^3 cells per well in 96-well cell culture plate and incubated at 37 °C in 5% CO 2 incubator. Serial concentrations of these compounds and doxorubicin (Dox) were incubat ed with Wi-38 cells for 72 h after 24 h for cell attachment. MTT method” for “MTT method”
as §4, §5, §6

[5] = tested on: normal human lung fibroblast Wi-38 cell line; assay: MTT cytotoxicity on normal cells; assay type: cell-based; details: Wi-38, 72 h, MTT, mean ± SEM; for EC50: Homo sapiens, 50% cell viability; for Wi-38 EC100: safe dose, 100% cell viability
Description: Cytotoxicity of the tested compounds was evaluated using normal human lung fibroblast Wi-38 cell line compared to currently used anticancer drug (doxorubicin) using MTT method was used for assaying cell viability[26] (Supplementary Page S55).
Cytotoxicity test is one of the biological evaluations and screening tests that use human normal and cancer cells in-vitro to observe the effect of the studied compounds on their growth using MTT-based cytotoxicity. Microculture MTT method[26] was used to determine cytotoxic activity of the newly synthesised compounds against normal human lung fibroblast (Wi-38) using doxorubicin (Dox) as standard anticancer drug. The highest IC50 and EC100 values illustrate that the compounds were safe on the proliferation of normal human cells. […]. page 47:
as §7
as §3, with “Firstly, Wi-38 cell line was subcultured in DMEM medium-contained 10% fetal bovine serum (FBS), then, seeded as 5x10^3 cells per well in 96-well cell culture plate and incubated at 37 °C in 5% CO 2 incubator. Serial concentrations of these compounds and doxorubicin (Dox) were incubat ed with Wi-38 cells for 72 h after 24 h for cell attachment. MTT method” for “MTT method”, “Instat software. […]” for “Instat software.”

Chain of PIM-2 kinase (Q9P1W9 whole entry): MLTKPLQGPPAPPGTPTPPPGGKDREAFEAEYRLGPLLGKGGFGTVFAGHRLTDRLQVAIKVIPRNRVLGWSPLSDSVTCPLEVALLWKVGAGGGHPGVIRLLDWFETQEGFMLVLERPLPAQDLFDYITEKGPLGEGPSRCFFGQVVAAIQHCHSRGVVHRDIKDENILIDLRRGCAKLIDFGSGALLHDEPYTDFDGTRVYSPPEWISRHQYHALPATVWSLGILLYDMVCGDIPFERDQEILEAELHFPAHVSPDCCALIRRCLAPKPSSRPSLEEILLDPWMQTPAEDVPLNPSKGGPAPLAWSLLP

Row | IC50 (PIM-2 kinase) | IC50 [1] | IC50 [2] | IC50 [3] | IC50 [4] | melting point | SMILES | Caco-2 SI [4] | EC50 [5] | Wi-38 EC100 [5]
1 | 610 nM |  |  |  |  |  | O=c1c(O)c(-c2ccc(O)c(O)c2)oc2cc(O)cc(O)c12 [Quercetin, reference compound] |  |  | 
2 |  | 127 ± 2 nM | 74 ± 2 nM | 135 ± 2 nM | 104 ± 4 nM | 240 to 242 °C | N#Cc1c(-c2cc3ccccc3nc2N2CCOCC2)cc(-c2cccc(O)c2)nc1S [6a, 6-(3-Hydroxyphenyl)-4-(2-morpholin-4-yl-quinolin-3-yl)-2-mercaptopyridine-3-carbonitrile] | 1.740 | 181 ± 5 nM | 0.0785 ± 0.003 µM
3 |  | 140 ± 4 nM | 125 ± 2 nM | 135 ± 3 nM | 146 ± 19 nM | 227 to 230 °C | N#Cc1c(-c2cc3cc(Cl)ccc3[nH]c2=O)cc(-c2cccc(O)c2)nc1S [14b, 4-(6-Chloro-2-oxo-1,2-dihydroquinolin-3-yl)-6-(3-hydroxyphenyl)-2-mercaptopyridine-3-carbonitrile] | 1.342 | 196 ± 12 nM | 0.153 ± 0.005 µM
4 |  | 100.8 ± 0.1 nM | 84.8 ± 2 nM | 145 ± 15 nM | 99.9 ± 3 nM | > 300 °C | COc1ccc2nc(N3CCOCC3)c(-c3cc(-c4cccc(O)c4)nc(S)c3C#N)cc2c1 [6c, 6-(3-Hydroxyphenyl)-4-(6-methoxy-2-morpholin-4-yl-quinolin-3-yl)-2-mercaptopyridine-3-carbonitrile] | 3.764 | 376 ± 1 nM | 0.177 ± 0.011 µM
5 |  | 119 ± 14 nM | 46.6 ± 1 nM | 204 ± 6 nM | 55.2 ± 3 nM | 260 to 261 °C | N#Cc1c(-c2cc3cc(Cl)ccc3nc2N2CCOCC2)cc(-c2cccc(O)c2)nc1S [6b, 4-(6-Chloro-2-morpholin-4-yl-quinolin-3-yl)-6-(3-hydroxyphenyl)-2-mercaptopyridine-3-carbonitrile] | 2.500 | 138 ± 2 nM | 0.0493 ± 0.001 µM
6 |  | 196 ± 61 nM | 299 ± 8 nM | 323 ± 7 nM | 194 ± 2 nM | > 300 °C | N#Cc1c(-c2cc3cc(Cl)ccc3[nH]c2=O)cc(-c2cccc(O)c2)nc1N [15b, 2-Amino-4-(6-chloro-2-oxo-1,2-dihydroquinolin-3-yl)-6-(3-hydroxyphenyl)pyridine-3-carbonitrile] | 1.361 | 264 ± 6 nM | 0.169 ± 0.009 µM
7 |  | 140 ± 20 nM | 49.5 ± 0.1 nM | 145 ± 2 nM | 79.9 ± 3 nM | > 300 °C | CC(=O)Oc1cccc(-c2cc(-c3cc4ccccc4nc3N3CCOCC3)c(C#N)c(=O)[nH]2)c1 [7a, 3-(5-Cyano-4-(2-morpholin-4-yl-quinolin-3-yl)-6-oxo-1,6-dihydropyridin-2-yl)phenyl acetate] | 2.178 | 174 ± 5 nM | 0.102 ± 0.01 µM
8 |  | 143 ± 13 nM | 107 ± 11 nM | 122 ± 1 nM | 141 ± 21 nM | 259 to 260 °C | COc1ccc2[nH]c(=O)c(-c3cc(-c4cccc(O)c4)nc(N)c3C#N)cc2c1 [15c, 2-Amino-6-(3-hydroxyphenyl)-4-(6-methoxy-2-oxo-1,2-dihydroquinolin-3-yl)pyridine-3-carbonitrile] | 0.858 | 121 ± 2 nM | 0.101 ± 0.005 µM
9 |  | 45.1 ± 0.1 nM | 37.8 ± 10 nM | 42.83 ± 0.3 nM | 50.8 ± 4 nM | 265 to 267 °C | COc1ccc2nc(N3CCCCC3)c(-c3cc(-c4cccc(O)c4)[nH]c(=O)c3C#N)cc2c1 [5f, 6-(3-Hydroxyphenyl)-4-(6-methoxy-2-(piperidin-1-yl)quinolin-3-yl)-2-oxo-1,2-dihydropyridine-3-carbonitrile] | 0.587 | 29.8 ± 2 nM | 0.0258 ± 0.008 µM
10 |  | 159 ± 7 nM | 281 ± 7 nM | 110 ± 2 nM | 100 ± 14 nM | 268 to 270 °C | COc1ccc(NC(=O)COc2nc(-c3cccc(O)c3)cc(-c3cc4ccccc4nc3N3CCOCC3)c2C#N)cc1 [11c] | 1.010 | 101 ± 1 nM | 0.0483 ± 0.004 µM
